According to publication PMC8067766 (International Journal of Molecular Sciences, 2021):
Each block holds one compound with its values, some of them ahead of it. Where a SMILES comes first, the peptide text is derived from it.

Experiments:
[1] = Transmission electron microscopy of fibrils; assay type: physicochemical; details: 1.0 mg/mL in PBS pH 7.4, TEM, uranyl acetate stain
Experimental: (§1) All peptides were dissolved in Eppendorf Low Retention Tubes in 1.0 mL of PBS pH 7.4. The concentration of the solutions of peptides was 1.0 mg/mL. The peptides were incubated at 37 °C with constant orbital shaking. Aliquots for the evaluation of the fibrillization process were taken before incubation and after 1, 2, 3, 6, 14, and 21 days or only after 7 days, depending on the experiments.
Peptide samples (5 µL) were applied on a glow-discharged carbon-coated copper grid (400 mesh). After 1 min of adsorption, excess liquid was removed using filter paper, and the samples were stained with 2% (v/v) aqueous uranyl acetate. The samples were examined with a TECNAI SPIRIT BIO TWIN FEI (FEI Company, Hillsboro, OR, USA) at 120 kV, with nominal magnifications between 11,500 and 39,000. The assay was performed for samples before (after dissolution) and after 3 days of incubation.

[2] = Thioflavin T fluorescence assay; assay type: physicochemical; details: 1.0 mg/mL in PBS pH 7.4, 37 °C, orbital shaking; ThT excitation 420 nm, emission 482 nm
Experimental: as §1
Ten microliters of peptide solution incubated under fibrillization conditions (see Fibril preparation) were mixed with 10 µL of 1.5 mM ThT in water and 90 µL of PBS pH 7.4. The fluorescence was measured on a Tecan Infinite 200Pro (Tecan Group Ltd., Männedorf, Switzerland) spectrofluorometer in 96-well plates (Costar Black®), with excitation wavelength set at 420 nm and emission in the range of 455 to 600 nm.

[3] = Circular dichroism over incubation; assay type: physicochemical; details: 1.0 mg/mL in PBS pH 7.4, 37 °C with agitation, up to 14 days; centrifuged clear solution, far-UV 195-250 nm
Experimental: Circular dichroism spectra were recorded on a Jasco J-815 spectropolarimeter (Jasco, Victoria, BC, Canada). Far-UV spectra (195–250 nm) were registered for all peptides dissolved in PBS pH 7.4 at a concentration of 1.0 mg/mL and incubated at 37 °C with agitation. Spectra were recorded before and after 1,2, 3, 7, 10 and 14 days of incubation. All spectra were corrected for the buffer signal. The CD spectra were recorded three times, using a 0.2 mm cell.

[4] = biological target: T1, human neutrophil elastase (Homo sapiens, UniProt P08246); test: Incubation with neutrophil elastase (release of active sequence); assay type: in vitro ADME; details: non-fibrillated peptide 1.0 mM, 0.1 M Tris HCl, 500 mM NaCl, 0.05% Triton X-100, 20 mM CaCl2, pH 7.5; enzyme 150 nM; 30 min, 37 °C; RP-UHPLC (PDA) and LC-MS
T1 construct: purchased Sigma Aldrich
T1 sequence (P08246 30-267): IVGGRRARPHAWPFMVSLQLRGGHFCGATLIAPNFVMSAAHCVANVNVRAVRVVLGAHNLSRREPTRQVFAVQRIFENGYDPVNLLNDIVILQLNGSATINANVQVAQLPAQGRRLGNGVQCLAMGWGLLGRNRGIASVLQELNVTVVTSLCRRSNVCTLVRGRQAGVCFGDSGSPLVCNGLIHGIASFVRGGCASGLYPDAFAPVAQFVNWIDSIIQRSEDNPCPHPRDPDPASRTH
Experimental: An enzymatic stability study was performed using the human neutrophil elastase enzyme (Sigma Aldrich, St. Louis, MO, USA). The peptides were dissolved in a buffer (with composition: 0.1 M Tris HCl, 500 mM NaCl, 0.05% Triton X-100, 20 mM CaCl2, pH 7.5), to a final concentration 1.0 mM. The fibrils formed in the aggregation process were dissolved in PBS at pH 7.4 to a concentration of 1 mg/mL. The enzyme was added to the peptide/fibril solution to a concentration of 150 nM and incubated for 30 min (peptides) or 60 min (fibrils), at 37 °C, with agitation. A 10% aqueous TFA solution was added to the reaction mixture to stop the digestion. The progress of the reaction was monitored by RP-UHPLC with a PDA (Photo Diode Array) detector on a Kinetex C8 column (2.6 μm, 100 Å 2.6 × 100 mm, Phenomenex, Torrance, CA, USA), at a gradient of 0–50% B for 15 min, and by LC-MS.

[5] = Peptide stability in human plasma (TCA assay); assay type: in vitro ADME; details: human plasma (EDTA), 37 °C, 300 rpm, TCA 3% precipitation, RP-HPLC UV 223 nm, at least triplicates
Experimental: Peptide stability tests were performed according to a TCA stability assay based on the method used by Nguyen et al.. Peptides were dissolved in water, mixed with human plasma* to a final concentration of 1.0 mg/mL, and incubated at 37 °C with agitation (300 rpm, Thermomixer, Eppendorf AG, Hamburg, Germany). After 0, 1, 2, 3, 6 and 24 h, 80 μL of the solution was taken and mixed with 15% TCA to obtain a final concentration of 3% (v/v). The samples were incubated in ice for 10 min and centrifuged for 10 min (12,000 rpm, Microfuge 16, Beckman Coulter, Brea, CA, USA). Supernatants were analyzed by RP-HPLC on column using a linear gradient of acetonitrile (5–100% over 15 min) with detection at 223 nm. Peptides were quantified by their peak areas relative to the initial peak areas (0 min). All stability tests were performed at least in triplicates. As control samples peptides dissolved only in water under the same conditions were used. To additionally assess the changes in the incubated samples (peptide degradation) mass spectrometry analysis was used. LC-MS experiments were performed using ESI-IT-TOF (Shimadzu, Kyoto, Japan).
* Blood was collected from healthy anonymous donors and EDTA was then used as an anticoagulant. The procedure was approved by the Independent Bioethics Commission for Research of the Medical University of Gdańsk (NKBBN/387/2014).

46BR.1N fibroblasts [6] = test: XTT proliferation assay, fibroblasts; assay type: cell-based, human; details: for inhibition of proliferation (XTT), in words: up to 25 µg/mL
Experimental: (§2) Immortalized human HaCaT [69, 70] keratinocytes (DKFZ, Heidelberg, Germany) and the human dermal fibroblast cell line 46BR.1N (ECACC, Sigma Aldrich, St. Louis, MO, USA) were used in the study. Cells were routinely grown in culture flasks (growth surface area 25 cm^2) in Dulbecco’s modified Eagle medium (DMEM, Sigma Aldrich, St. Louis, MO, USA), with 4500 mg/L of glucose, 584 mg/L of L-glutamine, sodium pyruvate, and sodium bicarbonate, supplemented with 10% FBS and 100 units/mL of penicillin and 100 μg/mL of streptomycin (Sigma Aldrich, St. Louis, MO, USA), under a humidified atmosphere with 5% CO2 at 37 °C. Medium was changed every 2–3 days.
(§3) Lactate dehydrogenase (LDH) activity in cell culture supernatants (Takara, Japan, cat. No. MK401) was measured to determine the cytotoxicity of the tested compounds, and the XTT assay was used to evaluate their effect on cell proliferation. Both tests were performed as previously described according to manufacturers’ instructions. Briefly, cells were seeded into 96-well plates, at a density of 5000 cells per well, in DMEM supplemented with 10% FBS. After 24 h the medium was exchanged for serum-free DMEM containing appropriate concentrations of the tested compounds. Supernatants for LDH analysis were collected after 48 h of incubation. The XTT assay was performed after 48 and 72 h of incubation.
(§4) For the analysis of the effect of the peptide fibrils on skin cells, the experiment was performed as described, but the cells were stimulated with 10 µL of the fibrils (50 µg/mL) and incubated for 48 h, when the LDH and XTT assay were then performed.

HaCaT keratinocytes = test: XTT proliferation assay, keratinocytes; assay type: cell-based, human; details: for inhibition of proliferation (XTT), in words: up to 25 µg/mL
Experimental: as §2, §3, §4

46BR.1N fibroblasts [7] = test: LDH cytotoxicity assay, fibroblasts; assay type: cell-based, human; details: non-fibrillated peptide 25 µg/mL, 48 h, serum-free DMEM; n = 16
Experimental: as §2
Lactate dehydrogenase (LDH) activity in cell culture supernatants (Takara, Japan, cat. No. MK401) was measured to determine the cytotoxicity of the tested compounds, and the XTT assay was used to evaluate their effect on cell proliferation. Both tests were performed as previously described according to manufacturers’ instructions. Briefly, cells were seeded into 96-well plates, at a density of 5000 cells per well, in DMEM supplemented with 10% FBS. After 24 h the medium was exchanged for serum-free DMEM containing appropriate concentrations of the tested compounds. Supernatants for LDH analysis were collected after 48 h of incubation. The XTT assay was performed after 48 and 72 h of incubation. […]

[8] = tested on: human neutrophil elastase (Sigma Aldrich), 150 nM; test: human neutrophil elastase in buffer (0.1 M Tris HCl, 500 mM NaCl, 0.05% Triton X-100, 20 mM CaCl2, pH 7.5); non-fibrillated peptides; details: 37 °C, up to 30 min
human plasma = details: 37 °C, up to 24 h
[9] = non-fibrillated peptide, 48 and 72 h, serum-free DMEM, n = 16
[10] = non-fibrillated peptide, 48 and 72 h

- remaining at 24 h, 1 mg/mL ([5]; rapid precipitation of peptide noted, read-out: peptide remained in solution in human plasma): 11%
Compound: CC[C@H](C)[C@H](NC(=O)CNC(=O)[C@H](C)NC(=O)[C@@H](N)CCC(N)=O)C(=O)N[C@H](C(=O)N[C@H](C(N)=O)C(C)C)C(C)C [FC] (H-QAGIVV-NH2)
- cytotoxicity (LDH release) (46BR.1N fibroblasts [7]): about 5%
- inhibition of proliferation (XTT), in words (46BR.1N fibroblasts [6]; [10]): Inhibition of the proliferation of both cell lines was not observed
- inhibition of proliferation (XTT), in words (HaCaT keratinocytes; [10]): Inhibition of the proliferation of both cell lines was not observed

- cleaved bond [8]: V-G, major, 30 min
Compound: Ac-GHK-GGG-AAPV-GGG-QAGIVV-NH2

Further lines, the compound ahead of its results:

Compound: CC[C@H](C)[C@H](NC(=O)CNC(=O)[C@H](C)NC(=O)[C@H](CCC(N)=O)NC(=O)CNC(=O)CNC(=O)CNC(=O)[C@@H](NC(=O)[C@@H]1CCCN1C(=O)[C@H](C)NC(=O)[C@H](C)NC(=O)CNC(=O)CNC(=O)CNC(=O)[C@H](CCCNC(=N)N)NC(=O)[C@H](Cc1ccc(O)cc1)NC(=O)[C@@H](NC(=O)[C@H](CCCCN)NC(=O)[C@H](CC(=O)O)NC(=O)[C@H](CCCNC(=N)N)NC(C)=O)C(C)C)C(C)C)C(=O)N[C@H](C(=O)N[C@H](C(N)=O)C(C)C)C(C)C [FC-IM] (Ac-RDKVYRGGGAAPVGGGQAGIVV-NH2)
- fibril thickness (TEM) [1]: 10–12 nm
- time course of ThT fluorescence increase (fibrillization) [2]: required at least three days of incubation
- secondary structure by CD [3]: disordered structure
- Degradation Yes/No by human neutrophil elastase [4]: Yes
- metabolised at 24 h, 1 mg/mL ([5]; peak area relative to 0 min, read-out: peptide loss in human plasma relative to the initial concentration): 7%
- increase in proliferation by fibrils compared to control (XTT) (46BR.1N fibroblasts [6]; fibrillated form, 10 µL of fibrils (50 µg/mL), 48 h, three independent experiments): did not stimulate proliferation of either tested cell line
- increase in proliferation compared to the control (XTT) (46BR.1N fibroblasts [6]; [9]): 20–30%
- inhibition of proliferation (XTT), in words (46BR.1N fibroblasts [6]; [10]): Slight inhibition of the proliferation of fibroblasts was seen at a concentration of 25 µg/mL after 72 h incubation
- increase in proliferation by fibrils compared to control (XTT) (HaCaT keratinocytes; fibrillated form, 10 µL of fibrils (50 µg/mL), 48 h, not statistically significant): did not stimulate proliferation of either tested cell line
- increase in proliferation compared to the control (XTT) (HaCaT keratinocytes; [9]): 20–30%
- inhibition of proliferation (XTT), in words (HaCaT keratinocytes; [10]): did not decrease the proliferation of HaCaT keratinocytes

Compound: Ac-K GHK-GGG-AAPV-GGG-QAGIVV-NH2
- cleaved bond [8]: V-G, major, 30 min

Compound: Ac-RDKVYR GGG-AAPV-GGG-QAGIVV-NH2
- not cleaved (human plasma): 7% peptide loss after 24 h
- cleaved bond [8]: V-G, major, 30 min
- fragment found [8]: Ac-RDKVYRGGGAAPVG-COOH
